Earlier results on 32 compounds are cited in PMC7395068, “The evolution of strategies to minimise the risk of human drug-induced liver injury (DILI) in drug discovery and development” (Archives of Toxicology, 2020).

Molecules are shown by their SMILES. Where two headings read alike, the source gives them in different places. Where a SMILES comes first, the peptide text is derived from it. Bridges are numbered along the chain shown (N, C = ends). [ ]: non-standard residue; d: D form. The star is where a group is joined. dPhe(4-NHCONH2) = NC(=O)Nc1ccc(C[C@@H](N)C(=O)O)cc1; Dihydroorotyl(S) = O=C1C[C@@H](C(=O)*)NC(=O)N1; dPhe(4-Cl) = N[C@H](Cc1ccc(Cl)cc1)C(=O)O; Phe(4-NH2) = Nc1ccc(C[C@H](N)C(=O)O)cc1; d2Nal = N[C@H](Cc1ccc2ccccc2c1)C(=O)O; Lys(iPr) = CC(C)NCCCC[C@H](N)C(=O)O; hArg = N=C(N)NCCCC[C@H](N)C(=O)O; d3Pal = N[C@H](Cc1cccnc1)C(=O)O; Mpa = O=C(O)CCS

For the series the following is noted: cited from earlier work.
Where [1] appears, read: binary in vivo human DILI call, ref Chen 2016.
Where [2] appears, read: human DILI, LTKB DILIrank category, ref Chen 2016.

As for `CC(=O)N[C@H](Cc1ccc2ccccc2c1)C(=O)N[C@H](Cc1ccc(Cl)cc1)C(=O)N[C@H](Cc1cccnc1)C(=O)N[C@@H](CO)C(=O)N[C@@H](Cc1ccc(NC(=O)[C@@H]2CC(=O)NC(=O)N2)cc1)C(=O)N[C@H](Cc1ccc(NC(N)=O)cc1)C(=O)N[C@@H](CC(C)C)C(=O)N[C@@H](CCCCNC(C)C)C(=O)N1CCC[C@H]1C(=O)N[C@H](C)C(N)=O` [degarelix] (Ac-[d2Nal][dPhe(4-Cl)][d3Pal]S[Phe(4-NH2)](Dihydroorotyl(S))[dPhe(4-NHCONH2)]L[Lys(iPr)]P[dA]-NH2), under setting [1], the “DILI +VE (5-8), DILI -VE (-4)” value is “-VE”. Besides, under setting [2], the DILI severity category result is recorded as “Ambiguous DILI-concern”.
As to `CC(C)Nc1cccnc1N1CCN(C(=O)c2cc3cc(NS(C)(=O)=O)ccc3[nH]2)CC1` [delavirdine], under setting [1], the “DILI +VE (5-8), DILI -VE (-4)” value is on record as “-VE”. Moreover, the DILI severity category entry under setting [2] is recorded as “Ambiguous DILI-concern”.
`CN(C)CC(c1ccc(O)cc1)C1(O)CCCCC1` (stereo not shown) [desvenlafaxine]: the “DILI +VE (5-8), DILI -VE (-4)” value under setting [1] is “+VE”. Also, the DILI severity category entry under setting [2] is listed as “vLess-DILI-Concern”.
Take `CN(C)CC[C@@H](c1ccc(Cl)cc1)c1ccccn1` [dexchlorpheniramine]: under setting [1], the “DILI +VE (5-8), DILI -VE (-4)” value is on record as “-VE”. Moreover, the DILI severity category result under setting [2] is reported as “vNo-DILI-Concern”.
Consider `Cc1c(OCC(F)(F)F)ccnc1C[S@@+]([O-])c1nc2ccccc2[nH]1` [dexlansoprazole], for which, under setting [1], the “DILI +VE (5-8), DILI -VE (-4)” value is on record as “+VE”. The DILI severity category entry under setting [2] was “vLess-DILI-Concern”.
Regarding `Cc1cccc([C@H](C)c2cnc[nH]2)c1C` [dexmedetomidine], the “DILI +VE (5-8), DILI -VE (-4)” value under setting [1] is “-VE”. The DILI severity category result under setting [2] is “Ambiguous DILI-concern”.
`COC(=O)[C@H](c1ccccc1)[C@H]1CCCCN1` [dexmethylphenidate]: for the setting “in vivo”, the “DILI +VE (5-8), DILI -VE (-4)” value was “+VE” and the DILI severity category entry is “vLess-DILI-Concern”.
Regarding `CC(C)(CO)[C@@H](O)C(=O)NCCCO` [dexpanthenol], for the setting “in vivo”, the “DILI +VE (5-8), DILI -VE (-4)” value is reported as “-VE” and the DILI severity category result is recorded as “vNo-DILI-Concern”.
On to `C[C@@H](CN1CC(=O)NC(=O)C1)N1CC(=O)NC(=O)C1` [dexrazoxane], for which the “DILI +VE (5-8), DILI -VE (-4)” value under setting [1] is listed as “-VE”. Further, under setting [2], the DILI severity category entry is “Ambiguous DILI-concern”.
As for `C[C@H](N)Cc1ccccc1` [dextroamphetamine], for the setting “in vivo”, the “DILI +VE (5-8), DILI -VE (-4)” value is “-VE” and the DILI severity category entry was “vNo-DILI-Concern”.
For the compound `NS(=O)(=O)c1cc(Cl)c(Cl)c(S(N)(=O)=O)c1` [dichlorphenamide], the “DILI +VE (5-8), DILI -VE (-4)” value under setting [1] is “-VE”. Also, under setting [2], the DILI severity category result is recorded as “vNo-DILI-Concern”.
For the compound `CCN(CC)CCOC(=O)C1(C2CCCCC2)CCCCC1` [dicyclomine], the “DILI +VE (5-8), DILI -VE (-4)” value under setting [1] was “-VE”. Besides, the DILI severity category entry under setting [2] is reported as “vNo-DILI-Concern”.
In the case of `OCC(S)CS` (stereo not shown) [dimercaprol], under setting [1], the “DILI +VE (5-8), DILI -VE (-4)” value is reported as “-VE”. Further, under setting [2], the DILI severity category entry was “vNo-DILI-Concern”.
Regarding `CCOC(=O)C1(c2ccccc2)CCN(CCC(C#N)(c2ccccc2)c2ccccc2)CC1` [diphenoxylate], the “DILI +VE (5-8), DILI -VE (-4)” value under setting [1] is listed as “-VE”. Moreover, the DILI severity category entry under setting [2] was “vNo-DILI-Concern”.
Regarding `CC(C)N(CCC(C(N)=O)(c1ccccc1)c1ccccn1)C(C)C` (stereo not shown) [disopyramide], the “DILI +VE (5-8), DILI -VE (-4)” value under setting [1] is recorded as “+VE”. Moreover, the DILI severity category result under setting [2] is reported as “vLess-DILI-Concern”.
Take `CCN1CC(CCN2CCOCC2)C(c2ccccc2)(c2ccccc2)C1=O` (stereo not shown) [doxapram]: the “DILI +VE (5-8), DILI -VE (-4)” value under setting [1] is “-VE”. Moreover, the DILI severity category entry under setting [2] is recorded as “vNo-DILI-Concern”.
In the case of `CN(C)CCC=C1c2ccccc2COc2ccccc21` [doxepin], under setting [1], the “DILI +VE (5-8), DILI -VE (-4)” value is on record as “+VE”. Further, under setting [2], the DILI severity category entry is on record as “vLess-DILI-Concern”.
On to `C=C1/C(=C\C=C2/CCC[C@]3(C)[C@@H]([C@H](C)/C=C/[C@H](C)C(C)C)CC[C@@H]23)C[C@@H](O)C[C@@H]1O` [doxercalciferol], for which the “DILI +VE (5-8), DILI -VE (-4)” value under setting [1] is on record as “-VE”. The DILI severity category entry under setting [2] was “Ambiguous DILI-concern”.
For `CCCCc1oc2ccc(NS(C)(=O)=O)cc2c1C(=O)c1ccc(OCCCN(CCCC)CCCC)cc1` [dronedarone], the “DILI +VE (5-8), DILI -VE (-4)” value under setting [1] is “+VE”. For the same compound, the DILI severity category result under setting [2] is reported as “vMost-DILI-Concern”.
In the case of `CNCC[C@H](Oc1cccc2ccccc12)c1cccs1` [duloxetine], under “in vivo”, the “DILI +VE (5-8), DILI -VE (-4)” value was “+VE” and the DILI severity category result is “vMost-DILI-Concern”.
Turning to `C[C@]12C=CC(=O)N[C@@H]1CC[C@@H]1[C@@H]2CC[C@]2(C)[C@@H](C(=O)Nc3cc(C(F)(F)F)ccc3C(F)(F)F)CC[C@@H]12` [dutasteride], the “DILI +VE (5-8), DILI -VE (-4)” value under setting [1] is “-VE”. Further, the DILI severity category result under setting [2] was “vNo-DILI-Concern”.
Regarding `O=C(O)CN(CCN(CC(=O)O)CC(=O)O)CC(=O)O` [edetic acid], where the note is “in vivo”, the “DILI +VE (5-8), DILI -VE (-4)” value is listed as “-VE” and the DILI severity category result is “Ambiguous DILI-concern”.
For the compound `CN1CCC[C@@H]1Cc1c[nH]c2ccc(CCS(=O)(=O)c3ccccc3)cc12` [eletriptan], under setting [1], the “DILI +VE (5-8), DILI -VE (-4)” value was “-VE”. Under setting [2], the DILI severity category entry is “Ambiguous DILI-concern”.
With `CC1=NN(c2ccc(C)c(C)c2)C(=O)/C1=N\Nc1cccc(-c2cccc(C(=O)O)c2)c1O` [eltrombopag olamine], the “DILI +VE (5-8), DILI -VE (-4)” value under setting [1] was “+VE”. For the same compound, under setting [2], the DILI severity category result is listed as “vMost-DILI-Concern”.
Regarding `Nc1nc(=O)n([C@@H]2CS[C@H](CO)O2)cc1F` [emtricitabine], the “DILI +VE (5-8), DILI -VE (-4)” value under setting [1] was “-VE”. Moreover, under setting [2], the DILI severity category entry is “Ambiguous DILI-concern”.
For `CN[C@@H](C)[C@H](O)c1ccccc1` [ephedrine], for the setting “in vivo”, the “DILI +VE (5-8), DILI -VE (-4)” value is listed as “-VE” and the DILI severity category result was “vNo-DILI-Concern”.
In the case of `CNC[C@H](O)c1ccc(O)c(O)c1` [epinephrine], the “DILI +VE (5-8), DILI -VE (-4)” value under setting [1] was “-VE”. Moreover, the DILI severity category result under setting [2] is listed as “vNo-DILI-Concern”.
As to `COc1cccc2c1C(=O)c1c(O)c3c(c(O)c1C2=O)C[C@@](O)(C(=O)CO)C[C@@H]3O[C@H]1C[C@H](N)[C@@H](O)[C@H](C)O1` [epirubicin], under setting [1], the “DILI +VE (5-8), DILI -VE (-4)” value is “-VE”. The DILI severity category entry under setting [2] is “Ambiguous DILI-concern”.
For `COC(=O)[C@@H]1CC2=CC(=O)CC[C@]2(C)[C@@]23O[C@@H]2C[C@@]2(C)[C@@H](CC[C@@]24CCC(=O)O4)[C@H]13` [eplerenone], under setting [1], the “DILI +VE (5-8), DILI -VE (-4)” value is “-VE”. Besides, under setting [2], the DILI severity category result was “Ambiguous DILI-concern”.
For `CCCCC[C@H](O)/C=C/[C@@H]1[C@H]2C/C(=C/CCCC(=O)O)O[C@H]2C[C@H]1O` [epoprostenol], the “DILI +VE (5-8), DILI -VE (-4)” value under setting [1] is “-VE”. For the same compound, the DILI severity category result under setting [2] is reported as “Ambiguous DILI-concern”.
For `CCCCc1ncc(/C=C(\Cc2cccs2)C(=O)O)n1Cc1ccc(C(=O)O)cc1` [eprosartan], the “DILI +VE (5-8), DILI -VE (-4)” value under setting [1] is listed as “-VE”. The DILI severity category entry under setting [2] is “Ambiguous DILI-concern”.
On to `N=C(N)NCCCC[C@@H]1NC(=O)CCSSC[C@@H](C(N)=O)NC(=O)[C@@H]2CCCN2C(=O)[C@H](Cc2c[nH]c3ccccc23)NC(=O)[C@H](CC(=O)O)NC(=O)CNC1=O` [eptifibatide] ([Mpa][hArg]GDWPC-NH2; disulfide 1-7), for which, for the setting “in vivo”, the “DILI +VE (5-8), DILI -VE (-4)” value is “-VE” and the DILI severity category entry is “vNo-DILI-Concern”.
